Data published in patent publication US20210346527A1, “Combination Therapy” (Advanced Accelerator Applications (Italy) SRL, priority 2018, published 2021).

Test system: CA20948 Tumor Model (neuroendocrine tumor cells)
Assay: In vivo therapy of PRRT +/- Olaparib, CA20948 tumor model
Parameters: species or system BALB-c immunocompromised mice
Excerpt: FIG. 1 : In vivo therapy of PRRT +/− Olaparib. The FIG. 1A presents the tumor volume after injection in the presence of the vehicle (square), olaparib alone (full circle), PRRT alone (empty circle) or in combination with PARP inhibitor (triangle). The survival proportions are also shown in FIG. 1B after injection in the presence of the vehicle, olaparib alone, PRRT alone or in combination with PARP inhibitor.
Combination therapies using CA20948 Tumor Model
We have xenografted BALB-c immunocompromised mice with neuroendocrine tumor cells. To increase the window of opportunity, we have started PARP inhibitor administration two days prior to PRRT injection for in total 14 days.

Compound	effect on survival (compared to vehicle)	effect on tumor growth (compared to vehicle)	speed of tumor regrowth (PRRT versus PRRT+olaparib groups)	start of tumor shrinkage (after injection, xenografted mice, PARP inhibitor started two days prior to PRRT injection, in total 14 days)
O=C(c1cc(Cc2n[nH]c(=O)c3ccccc23)ccc1F)N1CCN(C(=O)C2CC2)CC1 [olaparib, Olaparib]	No effect	No effect		
Lutetium (177Lu) oxodotreotide [PRRT]			the same in both groups	3 days
